Experimental data: US20250188085A1, “COMPOSITIONS AND METHODS FOR INHIBITION OF RAS” (THERAS, INC., priority 2022, published 2025)
pIC50: −log10 of the molar value.

Assays:
[1] = target: T1, GppNHp-loaded KRAS4b (amino acids 1-169) G12C/C118S protein (Homo sapiens, UniProt P01116, C118S/G12C); assay: Covalent cysteine 12 modification by MALDI-TOF MS, GppNHp-loaded KRAS G12C; assay type: binding; conditions: 15 minutes reaction time point
T1 construct: KRAS4b (amino acids 1-169) G12C/C118S protein; made in house
How it was run: (§1)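 KRAS4b 1-169 G12C/C118S loaded with GDP, GppNHp or GTP was used at 1 μM in 20 mM HEPES, 150 mM NaCl, 1 mM MgCl2, pH 7.3, and incubated with compound (5 mM DMSO stock) at room temperature in the dark. % modification at 15 min is adduct peak height over total protein peak heights by linear-mode MALDI-TOF.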

[2] = target: T2, GTP-loaded KRAS4b (amino acids 1-169) G12C/C118S protein (Homo sapiens, UniProt P01116, C118S/G12C); assay: Covalent cysteine 12 modification by MALDI-TOF MS, GTP-loaded KRAS G12C; assay type: binding; conditions: 15 minutes reaction time point
T2 construct: KRAS4b (amino acids 1-169) G12C/C118S protein; made in house
How it was run: as §1

[3] = target: T3, GDP-loaded KRAS4b (amino acids 1-169) G12C/C118S protein (Homo sapiens, UniProt P01116, C118S/G12C); assay: Covalent cysteine 12 modification by MALDI-TOF MS, GDP-loaded KRAS G12C; assay type: binding; conditions: 15 minutes reaction time point
T3 construct: KRAS4b (amino acids 1-169) G12C/C118S protein; made in house
How it was run: as §1

[4] = target: T4, Avi-KRAS G12C (1-169) GppNHp/RAF1 RBD-3×FLAG (52-151) (Homo sapiens, UniProt P01116, G12C); assay: Raf1 RBD-KRAS G12C-GppNHp disruption (protein:protein interaction HTRF assay); assay type: biochemical
T4 construct: Avi-KRAS G12C (1-169) GppNHp/RAF1 RBD-3×FLAG (52-151)
How it was run: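 HTRF measuring disruption of 50 nM Avi-KRAS G12C (1-169) loaded with GppNHp binding RAF1 RBD-3×FLAG (52-151), in pH 7.5 Tris buffer with 5 mM MgCl2, 0.1% BSA, 10% DMSO. KRAS preincubated with compound 1 h, then RBD 1 h, then detection reagents 1 h, all at room temperature. Compound titration 30-0.02 μM; activity expressed as percent of DMSO control.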

pERK in NCI-H358 cells = assay: Cell-based pERK HTRF assay; conditions: Homo sapiens, NCI-H358, 0.5 h, 30 min incubation, read-out: pERK in NCI-H358 cell inhibition IC50
How it was run: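 Cells seeded at 4×10^4/well in RPMI with 10% FBS, then next day treated for 30 min with a 9-point, 3-fold series from 75 μM top concentration at 0.25% DMSO. Lysates were read for pERK by HTRF (d2/Eu cryptate antibodies) after 4–24 h at room temperature, emission at 615 nm.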

| Compound | GppNHp-KRAS G12C percent of modification [1] | GTP-KRAS G12C percent of modification [2] | GDP-KRAS G12C percent of modification [3] | pIC50 [4] | pIC50 (pERK in NCI-H358 cells) |
| --- | --- | --- | --- | --- | --- |
| C=CC(=O)N1CC[C@@H](Oc2nc(OC[C@@]34CCCN3C[C@H](F)C4)nc3cc(-c4ccc(F)c5sc(N)c(C#N)c45)ccc23)[C@H]1C [Compound 103] | B (50≤percent of modification <70%) | C (10%≤modification <50%) | A (percent of modification ≥70%) | ≥ 6.30 | ≥ 7.00 |
| C=CC(=O)N1CC[C@@H](Oc2nc(OC[C@@]34CCCN3C[C@H](F)C4)nc3c(C#N)c(-c4ccc(F)c5sc(N)c(C#N)c45)ccc23)[C@H]1C [Compound 104] | C (10%≤modification <50%) | C (10%≤modification <50%) | A (percent of modification ≥70%) | ≥ 6.30 | 6.00 to 7.00 |
| C=CC(=O)N1CC[C@@H](Oc2nc(OC[C@@]34CCCN3C[C@H](F)C4)nc3c(Cl)c(-c4ccc(F)c5sc(N)c(C#N)c45)c(C#N)cc23)[C@H]1C [Compound 105] | A (percent of modification ≥70%) | B (50≤percent of modification <70%) | B (50≤percent of modification <70%) | ≥ 6.30 | ≥ 7.00 |
| C=CC(=O)N1CC[C@@H](Oc2nc(OC[C@@]34CCCN3C[C@H](F)C4)nc3cc(-c4ccc(F)c5sc(N)c(C#N)c45)c(C#N)cc23)[C@H]1C [Compound 107] | A (percent of modification ≥70%) | C (10%≤modification <50%) | A (percent of modification ≥70%) | ≥ 6.30 | ≥ 7.00 |
| C=CC(=O)N1CC[C@@H](Oc2nc(OC[C@@]34CCCN3C[C@H](F)C4)nc3c(F)c(-c4ccc(F)c5sc(N)c(C#N)c45)ccc23)[C@H]1CC [Compound 108] | C (10%≤modification <50%) | C (10%≤modification <50%) | A (percent of modification ≥70%) | ≥ 6.30 | ≥ 7.00 |
| C=CC(=O)N1CC[C@@H](Oc2nc(OC[C@@]34CCCN3C[C@H](F)C4)nc3c(Cl)c(-c4ccc(F)c5sc(N)c(C#N)c45)ncc23)[C@H]1COC [Compound 110] | A (percent of modification ≥70%) | A (percent of modification ≥70%) | A (percent of modification ≥70%) | ≥ 6.30 | ≥ 7.00 |
| C=CC(=O)N1CC[C@@H](Oc2nc(OC[C@@]34CCCN3C[C@H](F)C4)nc3c(F)c(-c4ccc(F)c5sc(N)c(C#N)c45)c(Cl)cc23)[C@H]1COC [Compound 111] | D (percent of modification <10%) | D (percent of modification <10%) | C (10%≤modification <50%) | 5.30 to 6.30 | ≥ 7.00 |
| C=CC(=O)N1CC[C@@H](Oc2nc(OC[C@@]34CCCN3C[C@H](F)C4)nc3c(F)c(-c4ccc(F)c5sc(N)c(C#N)c45)ccc23)[C@@H]1CC [Compound 116] | D (percent of modification <10%) | D (percent of modification <10%) | C (10%≤modification <50%) | < 4.70 | < 6.00 |
| C=CC(=O)N1CC[C@@H](Oc2nc(OC[C@@]34CCCN3C[C@H](F)C4)nc3c(F)c(-c4ccc(F)c5sc(N)c(C#N)c45)c(Cl)cc23)[C@@H]1CC [Compound 117] | D (percent of modification <10%) | D (percent of modification <10%) | C (10%≤modification <50%) | < 4.70 | < 6.00 |

Now from value to compound:

| GppNHp-KRAS G12C percent of modification [1] | GTP-KRAS G12C percent of modification [2] | GDP-KRAS G12C percent of modification [3] | pIC50 [4] | pIC50 (pERK in NCI-H358 cells) | Compound |
| --- | --- | --- | --- | --- | --- |
| A (percent of modification ≥70%) | A (percent of modification ≥70%) | A (percent of modification ≥70%) | ≥ 6.30 | ≥ 7.00 | C=CC(=O)N1CC[C@@H](Oc2nc(OC[C@@]34CCCN3C[C@H](OC)C4)nc3cc(-c4ccc(F)c5sc(N)c(C#N)c45)c(C(F)(F)F)cc23)[C@H]1C [Compound 102] |
| A (percent of modification ≥70%) | A (percent of modification ≥70%) | A (percent of modification ≥70%) | ≥ 6.30 | ≥ 7.00 | C=CC(=O)N1CC[C@@H](Oc2nc(OC[C@@]34CCCN3C[C@H](F)C4)nc3c(Cl)c(-c4ccc(F)c5sc(N)c(C#N)c45)ncc23)[C@H]1C [Compound 106, 4-(4-(((2R,3R)-1-acryloyl-2-methylpyrrolidin-3-yl)oxy)-8-chloro-2-(((2R,7aS)-2-fluorotetrahydro-1H-pyrrolizin-7a (5H)-yl)methoxy)pyrido[4,3-d]pyrimidin-7-yl)-2-amino-7-fluorobenzo[b]thiophene-3-carbonitrile] |
| A (percent of modification ≥70%) | C (10%≤modification <50%) | A (percent of modification ≥70%) | ≥ 6.30 | ≥ 7.00 | C=CC(=O)N1CC[C@@H](Oc2nc(OC[C@@]34CCCN3C[C@H](F)C4)nc3cc(-c4ccc(F)c5sc(N)c(C#N)c45)c(C#N)cc23)[C@H]1COC [Compound 112] |
| D (percent of modification <10%) | D (percent of modification <10%) | C (10%≤modification <50%) | < 4.70 | < 6.00 | C=CC(=O)N1CC[C@@H](Oc2nc(OC[C@@]34CCCN3C[C@H](F)C4)nc3cc(-c4ccc(F)c5sc(N)c(C#N)c45)c(F)cc23)[C@H]1COC [Compound 113] |
| C (10%≤modification <50%) | C (10%≤modification <50%) | C (10%≤modification <50%) | ≥ 6.30 | ≥ 7.00 | C=CC(=O)N1CC[C@@H](Oc2nc(OC[C@@]34CCCN3C[C@H](F)C4)nc3c(F)c(-c4ccc(F)c5sc(N)c(C#N)c45)c(C(F)(F)F)cc23)[C@H]1CC [Compound 114] |
| D (percent of modification <10%) | D (percent of modification <10%) | C (10%≤modification <50%) | 5.30 to 6.30 | 6.00 to 7.00 | C=CC(=O)N1CC[C@@H](Oc2nc(OC[C@@]34CCCN3C[C@H](F)C4)nc3c(F)c(-c4ccc(F)c5sc(N)c(C#N)c45)c(C(F)(F)F)cc23)[C@@H]1CC [Compound 115] |
| D (percent of modification <10%) | D (percent of modification <10%) | A (percent of modification ≥70%) | 5.30 to 6.30 | < 6.00 | C=CC(=O)N1CC[C@@H](Oc2nc(OC[C@@]34CCCN3C[C@H](F)C4)nc3c(F)c(-c4ccc(F)c5sc(N)c(C#N)c45)ccc23)[C@@H]1C [Compound 118] |
| D (percent of modification <10%) | D (percent of modification <10%) | B (50≤percent of modification <70%) | 4.70 to 5.30 | < 6.00 | C=CC(=O)N1CC[C@@H](Oc2nc(OC[C@@]34CCCN3C[C@H](F)C4)nc3cc(-c4ccc(F)c5sc(N)c(C#N)c45)c(F)cc23)[C@@H]1C [Compound 119] |
